Laboratory results taken from patent US20240025884A1 (Dong-A ST Co., Ltd., priority 2022, published 2024).

What follows are compounds tested against GCN2 (Homo sapiens (Human), UniProt Q9P2K8) (assay: GCN2 Biochemical Assay (TR-FRET, GFP-eIF2S1 substrate phosphorylation)). Conditions: read-out: IC50 (GCN2 Inhibitory Activity).
Experimental: Experimental Example 1: GCN2 Biochemical Assay
An inhibitory effect of the inventive compound on GCN2 was identified as follows.
384-well (Greiner #784075) (or 1536-well [Greiner #782075]) plates containing 60 nl (or 20 nl for 1536-well) of compound in 100% DMSO (10 concentrations serially diluted 3.16-fold) were prepared. Two copies of plates were used—one for the GCN2 assay and a second for an artifact plate. Working reagents were prepared as follows—reaction buffer: Tris pH 7.5 20 mM, MgCl2 5 mM, DTT 1 mM, Brij-35 0.005%, EGTA 0.5 mM in water; 2× enzyme solution: GCN2 (produced in-house) 1.6 nM in reaction buffer; 2× substrate solution: GFP-eIFS1 (Thermo Fisher Scientific, PV4809) 50 nM, ATP 0.2 mM, tRNA 0.4 mg/ml in reaction buffer; p-GFP-eIF2S1 (artifact) solution: p-GFP-eIFS1 (produced by incubation of 100 nM GFP-eIF2S1 in reaction buffer with 100 uM ATP and 1 nM PERK KD enzyme for 3 hr at room temperature) 2 nM in reaction buffer; 3× stop/antibody solution: p-GFP-EIF2S1 Th-Ab (Thermo Fisher Scientific, PV4816) 6 nM, AZ13933939 3 uM, BSA 3% in reaction buffer. Reagents were loaded onto a liquid dispenser (Certus FLEX, Trajan Scientific and Medical), and 3 ul (1 ul for 1536-well) of 2× enzyme solution, followed by 3 ul (1 ul for 1536-well) of 2× substrate solution was added to the plates. When small numbers of plates were processed, the enzyme solution was added first to all plates, then the valve used for the substrate solution was primed immediately prior to use. Plates were tapped or spun 1 min/1K/RT to ensure proper mixing, followed by incubation at room temperature for 70 mins, covered/stacked in the dark. For the artifact plate, 6 ul of p-GFP-eIF2S1 solution was added prior to adding the stop/antibody solution. 3 ul (1 ul for 1536-well) of 3× stop/antibody solution was added to the plates, followed by a spin-down for 1 min/1K/RT, and incubation for 2-3 hr, sealed or covered with lids in the dark at room temperature. Plates were read on a plate reader (PHERAstar FSX, BMF Labtech) at Ex 340/Em 490/Em 520 nm.

GCN2, sequence (Q9P2K8 whole entry): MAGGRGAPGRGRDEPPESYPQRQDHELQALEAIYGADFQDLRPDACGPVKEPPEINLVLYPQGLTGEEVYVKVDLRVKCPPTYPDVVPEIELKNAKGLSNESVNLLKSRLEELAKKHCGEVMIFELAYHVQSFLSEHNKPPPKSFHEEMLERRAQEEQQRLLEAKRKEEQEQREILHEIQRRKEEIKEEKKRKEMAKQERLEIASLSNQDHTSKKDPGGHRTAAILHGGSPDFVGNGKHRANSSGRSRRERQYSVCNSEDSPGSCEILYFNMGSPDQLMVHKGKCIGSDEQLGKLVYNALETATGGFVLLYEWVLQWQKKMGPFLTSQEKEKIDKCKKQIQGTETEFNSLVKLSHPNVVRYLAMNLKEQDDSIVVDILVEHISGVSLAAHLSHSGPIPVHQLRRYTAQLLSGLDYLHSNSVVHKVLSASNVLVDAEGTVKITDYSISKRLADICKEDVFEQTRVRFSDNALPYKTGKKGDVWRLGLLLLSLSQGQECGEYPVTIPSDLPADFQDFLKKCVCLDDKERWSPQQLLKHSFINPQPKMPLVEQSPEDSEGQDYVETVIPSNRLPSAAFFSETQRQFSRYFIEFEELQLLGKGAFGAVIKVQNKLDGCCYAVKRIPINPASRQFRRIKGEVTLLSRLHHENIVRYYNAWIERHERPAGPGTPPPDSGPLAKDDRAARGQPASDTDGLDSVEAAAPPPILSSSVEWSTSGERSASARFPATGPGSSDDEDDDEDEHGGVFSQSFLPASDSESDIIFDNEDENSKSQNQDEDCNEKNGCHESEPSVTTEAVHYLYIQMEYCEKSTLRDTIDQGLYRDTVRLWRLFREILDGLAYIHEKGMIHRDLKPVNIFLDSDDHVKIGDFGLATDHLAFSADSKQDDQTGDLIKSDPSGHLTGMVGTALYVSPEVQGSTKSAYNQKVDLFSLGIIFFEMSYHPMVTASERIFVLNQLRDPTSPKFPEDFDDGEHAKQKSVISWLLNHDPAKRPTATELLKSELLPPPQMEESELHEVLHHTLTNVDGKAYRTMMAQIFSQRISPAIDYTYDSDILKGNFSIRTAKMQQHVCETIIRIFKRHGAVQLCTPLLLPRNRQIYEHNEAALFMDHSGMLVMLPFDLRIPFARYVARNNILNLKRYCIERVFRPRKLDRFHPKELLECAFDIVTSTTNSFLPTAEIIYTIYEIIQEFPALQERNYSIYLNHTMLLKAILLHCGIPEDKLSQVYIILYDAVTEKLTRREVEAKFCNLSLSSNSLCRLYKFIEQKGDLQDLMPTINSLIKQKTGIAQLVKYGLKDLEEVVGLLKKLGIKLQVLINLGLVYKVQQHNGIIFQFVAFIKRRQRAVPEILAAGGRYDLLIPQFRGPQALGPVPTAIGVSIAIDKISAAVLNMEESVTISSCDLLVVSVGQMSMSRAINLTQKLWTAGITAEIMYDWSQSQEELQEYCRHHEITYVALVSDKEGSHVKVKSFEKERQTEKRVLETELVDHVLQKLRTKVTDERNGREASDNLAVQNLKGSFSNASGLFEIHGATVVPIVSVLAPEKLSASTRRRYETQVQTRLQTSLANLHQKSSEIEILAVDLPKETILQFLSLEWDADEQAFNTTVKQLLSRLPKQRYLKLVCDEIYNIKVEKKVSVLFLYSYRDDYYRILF

IC50 | Structure (SMILES)
< 10 nM | CCc1cnc(Nc2cc(C)n(C)n2)nc1-c1c[nH]c2c(NC(=O)CN3CC[C@H](Oc4ccnc(NC5CC5)n4)C3)cccc12 (stereo in doubt) [Example 11, (3-((2-(cyclopropylamino)pyrimidin-4-yl)oxy)pyrrolidin-1-yl)-N-(3-(2-((1,5-dimethyl-1H-pyrazol-3-yl)amino)-5-ethylpyrimidin-4-yl)-1H-indol-7-yl)acetamide]
10 to 100 nM | Cc1cnc(Nc2cc(C)n(C)n2)nc1-c1c[nH]c2c(NC(=O)CN3CCC(Oc4cc(C(F)(F)F)n(C)n4)C3)cccc12 (stereo in doubt) [Example 117, (R)-N-(3-(2-((1,5-dimethyl-1H-pyrazol-3-yl)amino)-5-methylpyrimidin-4-yl)-1H-indol-7-yl)-2-(3-((1-methyl-5-(trifluoromethyl)-1H-pyrazol-3-yl)oxy)pyrrolidin-1-yl)acetamide]
100 to 1000 nM | Cc1cnc(Nc2cc(C)n(C)n2)nc1-c1c[nH]c2c(NC(=O)CN3CC[C@H](Oc4cnc(-c5ccccc5)nc4)C3)cccc12 (stereo in doubt) [Example 257, N-(3-(2-((1,5-dimethyl-1H-pyrazol-3-yl)amino)-5-methylpyrimidin-4-yl)-1H-indol-7-yl)-2-(3-((2-phenylpyrimidin-5-yl)oxy)pyrrolidin-1-yl)acetamide]
< 10 nM | Cc1cnc(Nc2cc(C)n(C)n2)nc1-c1c[nH]c2c(NC(=O)CN3CC[C@H](Oc4ccnc(NC5CC5)n4)C3)c(F)ccc12 [Example 1, (S)-2-(3-((2-(cyclopropylamino)pyrimidin-4-yl)oxy)pyrrolidin-1-yl)-N-(3-(2-((1,5-dimethyl-1H-pyrazol-3-yl)amino)-5-methylpyrimidin-4-yl)-6-fluoro-1H-indol-7-yl)acetamide]
10 to 100 nM | Cc1cnc(Nc2cc(C)n(C)n2)nc1-c1c[nH]c2c(NC(=O)CN3CC[C@H](Oc4ccnc(NC5CC5)n4)C3)cc(N)cc12 [Example 2, (S)-N-(5-amino-3-(2-((1,5-dimethyl-1H-pyrazol-3-yl)amino)-5-methylpyrimidin-4-yl)-1H-indol-7-yl)-2-(3-((2-(cyclopropylamino)pyrimidin-4-yl)oxy)pyrrolidin-1-yl)acetamide]
< 10 nM | Cc1cnc(Nc2cc(C)n(C)n2)nc1-c1c[nH]c2c(NC(=O)CN3CC[C@H](Oc4ccnc(NC5CC5)n4)C3)c(N(C)C)ccc12 [Example 3, (S)-2-(3-((2-(cyclopropylamino)pyrimidin-4-yl)oxy)pyrrolidin-1-yl)-N-(3-(2-((1,5-dimethyl-1H-pyrazol-3-yl)amino)-5-methylpyrimidin-4-yl)-6-(dimethylamino)-1H-indol-7-yl)acetamide]
< 10 nM | COc1ccc2c(-c3nc(Nc4cc(C)n(C)n4)ncc3C)c[nH]c2c1NC(=O)CN1CC[C@H](Oc2ccnc(NC3CC3)n2)C1 [Example 4, (S)-2-(3-((2-(cyclopropylamino)pyrimidin-4-yl)oxy)pyrrolidin-1-yl)-N-(3-(2-((1,5-dimethyl-1H-pyrazol-3-yl)amino)-5-methylpyrimidin-4-yl)-6-methoxy-1H-indol-7-yl)acetamide]
< 10 nM | Cc1cnc(Nc2cc(C)n(C)n2)nc1C1=CCc2c1ccc(N(C)C)c2NC(=O)CN1CC[C@H](Oc2ccnc(NCC(F)(F)F)n2)C1 [Example 5, (S)-N-(3-(2-((1,5-dimethyl-1H-pyrazol-3-yl)amino)-5-methylpyrimidin-4-yl)-6-(dimethylamino)-1H-inden-7-yl)-2-(3-((2-((2,2,2-trifluoroethyl)amino)pyrimidin-4-yl)oxy)pyrrolidin-1-yl)acetamide]
10 to 100 nM | COc1ccc2c(-c3nc(Nc4cc(C)n(C)n4)ncc3C)c[nH]c2c1NC(=O)CN1CC[C@H](Oc2ccnc(NCC(F)(F)F)n2)C1 [Example 6, (S)-N-(3-(2-((1,5-dimethyl-1H-pyrazol-3-yl)amino)-5-methylpyrimidin-4-yl)-6-methoxy-1H-indol-7-yl)-2-(3-((2-((2,2,2-trifluoroethyl)amino)pyrimidin-4-yl)oxy)pyrrolidin-1-yl)acetamide]
< 10 nM | Cc1cc(Nc2nccc(-c3c[nH]c4c(NC(=O)CN5CC[C@H](Oc6cc(NC7CC7)ncn6)C5)cccc34)n2)nn1C [Example 7, (S)-2-(3-((6-(cyclopropylamino)pyrimidin-4-yl)oxy)pyrrolidin-1-yl)-N-(3-(2-((1,5-dimethyl-1H-pyrazol-3-yl)amino)pyrimidin-4-yl)-1H-indol-7-yl)acetamide]
< 10 nM | Cc1cc(Nc2ncc(F)c(-c3c[nH]c4c(NC(=O)CN5CC[C@H](Oc6ccncc6)C5)cccc34)n2)nn1C [Example 8, (S)-N-(3-(2-((1,5-dimethyl-1H-pyrazol-3-yl)amino)-5-fluoropyrimidin-4-yl)-1H-indol-7-yl)-2-(3-(pyridin-4-yloxy)pyrrolidin-1-yl)acetamide]
< 10 nM | Cc1cc(Nc2ncc(Cl)c(-c3c[nH]c4c(NC(=O)CN5CC[C@H](Oc6ccncc6)C5)cccc34)n2)nn1C [Example 9, (S)-N-(3-(5-chloro-2-((1,5-dimethyl-1H-pyrazol-3-yl)amino)pyrimidin-4-yl)-1H-indol-7-yl)-2-(3-(pyridin-4-yloxy)pyrrolidin-1-yl)acetamide]
10 to 100 nM | Cc1cc(Nc2ncc(C3CC3)c(-c3c[nH]c4c(NC(=O)CN5CC[C@H](Oc6ccnc(NC7CC7)n6)C5)cccc34)n2)nn1C [Example 12, (S)-N-(3-(5-cyclopropyl-2-((1,5-dimethyl-1H-pyrazol-3-yl)amino)pyrimidin-4-yl)-1H-indol-7-yl)-2-(3-((2-(cyclopropylamino)pyrimidin-4-yl)oxy)pyrrolidin-1-yl)acetamide]
< 10 nM | COc1cnc(Nc2cc(C)n(C)n2)nc1-c1c[nH]c2c(NC(=O)CN3CC[C@H](Oc4ccnc(NC5CC5)n4)C3)cccc12 [Example 13, (S)-2-(3-((2-(cyclopropylamino)pyrimidin-4-yl)oxy)pyrrolidin-1-yl)-N-(3-(2-((1,5-dimethyl-1H-pyrazol-3-yl)amino)-5-methoxypyrimidin-4-yl)-1H-indol-7-yl)acetamide]
< 10 nM | COc1cnc(Nc2cc(C)n(C)n2)nc1-c1c[nH]c2c(NC(=O)CN3CC[C@H](Oc4cnnc(NC5CC5)n4)C3)cccc12 [Example 14, (S)-2-(3-((3-(cyclopropylamino)-1,2,4-triazin-5-yl)oxy)pyrrolidin-1-yl)-N-(3-(2-((1,5-dimethyl-1H-pyrazol-3-yl)amino)-5-methoxypyrimidin-4-yl)-1H-indol-7-yl)acetamide]
< 10 nM | Cc1cnc(Nc2cc3n(n2)CCC3)nc1-c1c[nH]c2c(NC(=O)CN3CC[C@H](Oc4ccncn4)C3)cccc12 [Example 15, (S)-N-(3-(2-((5,6-dihydro-4H-pyrrolo[1,2-b]pyrazol-2-yl)amino)-5-methylpyrimidin-4-yl)-1H-indol-7-yl)-2-(3-(pyrimidin-4-yloxy)pyrrolidin-1-yl)acetamide]
< 10 nM | Cc1cnc(Nc2cc3n(n2)CCC3)nc1-c1c[nH]c2c(NC(=O)CN3CC[C@H](Oc4ccnc(NC5CC5)n4)C3)cccc12 [Example 16, (S)-2-(3-((2-(cyclopropylamino)pyrimidin-4-yl)oxy)pyrrolidin-1-yl)-N-(3-(2-((5,6-dihydro-4H-pyrrolo[1,2-b]pyrazol-2-yl)amino)-5-methylpyrimidin-4-yl)-1H-indol-7-yl)acetamide]
< 10 nM | Cc1cnc(Nc2cc(C)n(CCN3CCOCC3)n2)nc1-c1c[nH]c2c(NC(=O)CN3CC[C@H](Oc4ccnc(NC5CC5)n4)C3)cccc12 [Example 17, (S)-2-(3-((2-(cyclopropylamino)pyrimidin-4-yl)oxy)pyrrolidin-1-yl)-N-(3-(5-methyl-2-((5-methyl-1-(2-morpholinoethyl)-1H-pyrazol-3-yl)amino)pyrimidin-4-yl)-1H-indol-7-yl)acetamide]
10 to 100 nM | Cc1cnc(Nc2cc(C)n(C)n2)nc1-c1c[nH]c2c(NC(=O)C(=O)N3CC[C@H](Oc4ccncc4)C3)cccc12 [Example 18, (S)-N-(3-(2-((1,5-dimethyl-1H-pyrazol-3-yl)amino)-5-methylpyrimidin-4-yl)-1H-indol-7-yl)-2-ox0-2-(3-(pyridin-4-yloxy)pyrrolidin-1-yl)acetamide]
10 to 100 nM | Cc1cnc(Nc2cc(C)n(C)n2)nc1-c1c[nH]c2c(NC(=O)C(=O)N3CCC(Oc4ccccn4)C3)cccc12 (stereo not drawn) [Example 19]
< 10 nM | Cc1cnc(Nc2cc(C)n(C)n2)nc1-c1c[nH]c2c(NC(=O)C(=O)N3CC[C@H](Oc4ccnc(NC5CC5)n4)C3)cccc12 [Example 20, (S)-2-(3-((2-(cyclopropylamino)pyrimidin-4-yl)oxy)pyrrolidin-1-yl)-N-(3-(2-((1,5-dimethyl-1H-pyrazol-3-yl)amino)-5-methylpyrimidin-4-yl)-1H-indol-7-yl)-2-oxoacetamide]
